Assays:
[1] = Ring tensiometer
[2] = xn = mol fraction of the nth substance listed; settings: Ring tensiometer

CCCCCCCCCCCC [dodecane]
[1]
Settings | surface tension liquid-gas [mN/m]
293.15 K | 24.28
298.15 K | 23.84
303.15 K | 23.38
308.15 K | 22.98
313.15 K | 22.56
318.15 K | 22.14
323.15 K | 21.71

OC1CCCCC1 [cyclohexanol] + CCCCCCCCCCCC
surface tension liquid-gas [mN/m], [2]
Settings | x2 = 0 | x2 = 0.006 | x2 = 0.009 | x2 = 0.011 | x2 = 0.022 | x2 = 0.031 | x2 = 0.046 | x2 = 0.075
293.15 K | 33.15 | 31.7 | 31.11 | 30.68 | 30.22 | 29.81 | 29.14 | 27.16
298.15 K | 32.74 | 31.23 | 30.71 | 30.32 | 29.85 | 29.37 | 28.74 | 26.8
303.15 K | 32.35 | 30.78 | 30.28 | 29.99 | 29.46 | 28.87 | 28.35 | 26.47
308.15 K | 31.91 | 30.35 | 29.88 | 29.61 | 29.08 | 28.44 | 27.98 | 26.1
313.15 K | 31.58 | 29.92 | 29.49 | 29.25 | 28.72 | 28.01 | 27.58 | 25.76
318.15 K | 31.13 | 29.49 | 29.07 | 28.88 | 28.35 | 27.57 | 27.21 | 25.44
323.15 K | 30.78 | 29 | 28.69 | 28.5 | 27.99 | 27.13 | 26.83 | 25.09

CCCCCC [hexane]
[1]
Settings | surface tension liquid-gas [mN/m]
293.15 K | 18.56
298.15 K | 18.03
303.15 K | 17.44
308.15 K | 16.92
313.15 K | 16.38

CCCCCCCCC [nonane]
[1]
Settings | surface tension liquid-gas [mN/m]
293.15 K | 23.04
298.15 K | 22.49
303.15 K | 22.04
308.15 K | 21.49
313.15 K | 20.94
318.15 K | 20.47
323.15 K | 19.98

OC1CCCCC1 [cyclohexanol] + CCCCCC
surface tension liquid-gas [mN/m], [2]
Settings | x2 = 0 | x2 = 0.007 | x2 = 0.009 | x2 = 0.012 | x2 = 0.021 | x2 = 0.03 | x2 = 0.042 | x2 = 0.075
293.15 K | 33.15 | 31.87 | 31.64 | 31.5 | 31.11 | 30.5 | 30 | 28.85
298.15 K | 32.74 | 31.5 | 31.31 | 31.08 | 30.71 | 30.07 | 29.59 | 28.42
303.15 K | 32.35 | 31.13 | 30.96 | 30.7 | 30.33 | 29.67 | 29.15 | 27.96
308.15 K | 31.91 | 30.77 | 30.64 | 30.26 | 29.96 | 29.26 | 28.74 | 27.5
313.15 K | 31.58 | 30.42 | 30.31 | 29.88 | 29.55 | 28.85 | 28.33 | 27.06

CCCCCC [hexane] + OC1CCCCC1
[2], x1 = 1
Settings | surface tension liquid-gas [mN/m]
293.15 K | 18.56
298.15 K | 18.03
303.15 K | 17.44
308.15 K | 16.92
313.15 K | 16.38

CCCCCCCCC [nonane] + OC1CCCCC1
[2], x1 = 1
Settings | surface tension liquid-gas [mN/m]
293.15 K | 23.04
298.15 K | 22.49
303.15 K | 22.04
308.15 K | 21.49
313.15 K | 20.94
318.15 K | 20.47
323.15 K | 19.98

CCCCCCC [heptane]
[1]
Settings | surface tension liquid-gas [mN/m]
293.15 K | 20.05
298.15 K | 19.54
303.15 K | 19.1
308.15 K | 18.58
313.15 K | 18.08
318.15 K | 17.6
323.15 K | 17.06

C1CCCCC1 [cyclohexane] + OC1CCCCC1
[2], x1 = 1
Settings | surface tension liquid-gas [mN/m]
293.15 K | 25.06
298.15 K | 24.45
303.15 K | 23.87
308.15 K | 23.21
313.15 K | 22.71
318.15 K | 22.05
323.15 K | 21.45
